Reference: EP0273199A2, “Uses of 3,4-diphenyl piperidine derivatives or medicines, 3,4-diphenyl piperidine derivatives, and process for their preparation” (LABORATOIRES HOECHST S.A., priority 1986, dated 1988)
Several values for one entry are separate records, joined by “and”; a condition that tells them apart may be missing. Equal entries are not always repeated. Structures can show the parent of a compound that is named as a salt. Where two headings read alike, the source gives them in different places.

Experiments:
Apomorphin 16 mg/kg = experiment: Antiapomorphine activity (apomorphine 16 mg/kg s.c., hypothermia); assay type: in vivo, Maus; conditions: ip
Protocol: Zur Zeit 0 nach Ausgleich der Reaktaltemperaturen werden die Mäuse (6 pro Gruppe) in deren Beobachtung gestattende Einzelkäfige (11 x 3,5 x 4 cm) eingeetzt. 30 Minuten nach i.p. bzw. p.o. Verabreichung der Testsubstanz erhalten sie Apomorphin subkutan in einer Dosis von 16 mg/kg. Die Rektaltemperatur wird 30 Minuten nach dem Apomorphin gemessen. Die Kontrolltiere erhalten destilliertes Wasser statt der zu untersuchenden Verbindungen. Die bei diesen Kontrolltieren, die 16 mg/kg Apomorphin erhalten haben, beobachtete Hypothermie liegt im Durchschnitt bei 33°C. Für jede Verbindungsdosis berechnet man die prozentuale Hemmung der Hypothermie.

[1] = test system: durch Oxotremorin induzierten Hypothermie; experiment: Antioxotremorine activity (oxotremorine-induced hypothermia); assay type: in vivo, Maus; conditions: ip, read-out: Erste wirksame Dosis Oxotremorin
Protocol: Nach Ausgleich der Rektaltemperaturen erhalten Mäuse (6 pro Gruppe) entweder destillietes Wasser oder die verschiedenen zu untersuchenden Verbindungen i.p.
30 Minuten danach verabreicht man intraperitoneal Oxotremorin in einer Dosis von 0,5 mg/kg.
Die Mäuse werden dan beobachtet: Tremor wird je nach der Intensität von 0 bis 3 bewertet, und die Akinesie wird alle 10 Minuten über einen Zeitraum von 30 Minuten auf Vorliegen oder Fehlen bestimmt.
Außerdem beobachtet man 2 Stunden lang das Erscheinen peripherer Symptome (Tränen, Darmentleerung). Die Rektaltemperatur wird alle 30 Minuten über eine Zeitraum von 2 Stunden nach der Verabreichung des Oxotremorins gemessen.
Die eine antidepressive Aktivität besitzenden Produkte wirken der durch Oxotremorin induzierten Hypothermie entgegen.
Für jede Dosis der Verbindung berechnet man die prozentuale Hemmung der Hypothermie.

[2] = test system: durch Reserpin induzierten Hypothermie; experiment: Antireserpine activity (reserpine-induced hypothermia); assay type: in vivo, Maus; conditions: ip
Protocol: Zur Zeit 0 erhalten die Mäuse intraperitoneal Reserpin (2,5 mg/kg).
4 Stunden danach, wenn die Hypothermie genügend stark erscheint (30 bis 33°C), verabreicht man die verschiedenen zu untersuchenden Verbindungen i.p. oder p.o. Alle 30 Minuten über einen Zeitraum von 2 Stunden mißt man die Rektaltemperatur mit einer auf konstante Tiefe eingeführten, ein Thermoelement tragenden Sonde. Die Rektaltemperatur der mit verschiedenen erfindungsgemäßen Verbindungen behandelten Tiere wird mit der Temperatur einer Kontrollgruppe verglichen, die destilliertes Wasser auf die gleiche Weise wie die untersuchten Verbindungen erhält.
Die Akinesie (fehlende Bewegungen) und Ptose (Öffnungsgrad des Augenlids von 0 bis 4 nach Rubin u.a 1957) werden ebenfalls alle 30 Minuten über einen Zeitraum von 2 Stunden bewertet.
Die eine antidepressive Aktivität besitzenden Produkte wirken der durch Reserpin induzierten Hypothermie entgegen. Für jede Dosis der verabreichten Verbindung berechnet man die prozentuale Hemmung der Hypothermie.

Motoraktivität = experiment: Actimetry (motor activity, photocell actimeter); assay type: in vivo, Maus; conditions: for Motilität: i.p., direction of change; for Motilität / minimal effective dose: Tabelle Ib; for minimal effective dose: ip, read-out: Erste wirksame Dosis Motilität
Text: Die Motoraktivität wird mittels Photozellenaktimetern bestimmt (Boissier und Simon, Arch. Int. Pharmacodyn. 1965, 158, 212-221).
Die Mäuse (10 oder ein Vielfaches von 10 pro Gruppe) werden unmittelbar nach i.p. Verabreichung der zu untersuchenden Verbindungen in das Aktimeter eingesetzt. Die Motoraktivität wird danach bis zur 60. Minute gemessen. De Zähler werden nach 30 Minuten abgelesen und dann auf 0 zurückgestellt und im Verlauf von 30 Minuten alle 10 Minuten abgelesen.
Die Beweglichkeit der mit den verschiedenen Verbindungen behandelten Tiere wird mit derjenigen einer destilliertes Wasser erhaltenden Kontrollgruppe verglichen.
Die eine psychostimulierende Aktivität besitzenden Produkte verursachen eine Zunahme der Beweglichkeit.

Toxizität des Yohimbins = experiment: Potentiation of yohimbine toxicity; assay type: in vivo, Maus; conditions: for minimal effective dose: ip, Tabelle Ib, read-out: Erste wirksame Dosis Yohimbin
Protocol: Wirkung auf die Toxizität des Yohimbins
Zur Zeit 0 erhalten die Mäuse entweder destilliertes Wasser oder verschiedene zu untersuchende Verbindungen i.p. 30 Minuten danach verabreicht man ihnen subkutan eine infratoxische Dosis von 25 mg/kg Yohimbinchlorhydrat.
Die Mortalität wird jede Stunde über einen Zeitraum von 4 Stunden verfolgt und dann nach 24 Stunden notiert.
Die eine antidepressive Aktivität besitzenden Produkte verursachen eine Potenzierung der Toxizität des Yohimbins.

[3] = test system: Apomorphin 1 mg.kg^-1 s.c.; experiment: Apomorphine 1 mg/kg s.c. antagonism (no method given); assay type: in vivo; conditions: ip, Tabelle Ib; read-out: Erste wirksame Dosis Apomorphin 1 mg.kg^-1 s.c.
Maus [4] = experiment: Tail suspension test; assay type: in vivo; conditions: for minimal effective dose: ip; for % Antagonismus / Dauer der Unbeweglichkeit: mouse
Text: Schwanzaufhängungstest an der Maus wie von Stéru u.a. beschrieben (Psychopharmacology 85, 367-370, 1985).
Die Substanzen werden intraperitoneal 30 Minuten vor dem Test verabreicht und die Tiese isoliert (10 Mäuse pro Dosis).
Man bewertet die Dauer der Unbeweglichkeit, ausgedrückt in Sekunden über die 6 Minuten des Tests. Man untersucht auf eine Verkürzung dieser Unbeweglichkeitszeit.

Maus [5] = experiment: Behavioural despair test (Porsolt forced swimming); assay type: in vivo; conditions: mouse; for Dauer der Unbeweglichkeit: 30 min before test
Text: Test auf verzweifeltes Verhalten, wie von Porsolt u.a. (Arch. Int, Pharmacodyn. Ther. 229, 327 - 336, 1977) beschrieben.
Die Verbindungen werden intraperetoneal 30 Minuten vor dem Test verabreicht, und die Tiere werden vor dem erzwungenen Schwimmtest isoliert gehalten. Man bewertet die Dauer der Unbeweglichkeitsperioden in Sekunden ausgedrückt, die von der 2. bis zur 6. Minute nach dem Einsetzen des Tieres in Wasser gezählt werden.

Maus [6] = experiment: Hot plate test (licking and jumping), analgesia; assay type: in vivo
Protocol: Heizplattentest: Lecken und Springen, wie von Jacob und Blozovski beschrieben (Arch. Int. Pharmacodyn. 133, 296-209, 1961).
Die in Sekunden ausgedrückten Reaktionszeiten auf einer Heizplatte werden unter Berücksichtigung des Leckens der Vorderpfoten und Springen des Tieres als Kriterien bewertet. Die beiden Reaktionen werden am selben, anfänglich untrainierten Tier mit einer maximalen Ansprechzeit (Obergrenze) von 240 Sekunden beobachtet. Die Temperatur der Platte wird auf 56,6°C gehalten.
Morphin als positive Kontrolle wird subkutan und die übrigen Substanzen (mg/kg) werden intraperitoneal 30 Minuten vor dem Test verabreicht. Positives Ansprechen zeigt sich in einer Zunahme der Reaktionszeit.
Wird der schadensverhütenden Wirkung eine Substanz durch Naloxon entegengewirkt, so kann man schließen, daß die Substanz tatsächlich eine analgetische Wirkung besitzt.

L-5-Hydroxytryptophan = experiment: Potentiation of L-5-hydroxytryptophan effects (head twitches, tremor); assay type: in vivo, Maus; conditions: mouse
Protocol: L-5 HTP induziert an der Maus ruckartige Bewegungen des Kopfes (Kopfzuckungen). Die zu untersuchenden Substanzen werden den Tieren (10 Mäuse pro Dosis) intraperitoneal 30 Minuten vor dem L-5 HTP (4 mg/kg intraperitoneal) verabreicht. Die ruckartigen Kopfbewegungen und der Tremor werden 1 Minutre lang alle 10 Minuten im Verlauf einer Stunde bewertet. Desimipramin und Indalpin sind die Kontrol-(Vergleichs-)verbindungen. Ein antidepressiver Effekt zeigt sich durch eine Zunahme der ruckartigen Kopfbewegungen und des Tremors.

[7] = Tabelle Ib, read-out: Erste wirksame Dosis T.S.T. Maus
[8] = Tabelle Ib, read-out: Erste wirksame Dosis Apomorphin 16 mg.kg^-1 s.c.
[9] = Tabelle Ib, read-out: Erste wirksame Dosis Reserpin
[10] = mouse, Tabelle 5a, 16 mg/kg, without Naloxon
[11] = mouse, reaction time, 8 mg/kg i.p., plate 56,6°C
[12] = mouse, reaction time, 16 mg/kg i.p., plate 56,6°C, 16 mg/kg
[13] = mouse, reaction time, 32 mg/kg i.p., plate 56,6°C
[14] = 8 mg/kg i.p., 30 min before L-5 HTP 4 mg/kg i.p.
[15] = 4 mg/kg i.p., 30 min before L-5 HTP 4 mg/kg i.p.

| SMILES | minimal effective dose [3] [mg/kg] | minimal effective dose (Maus [4]; [7]) [mg/kg] | % Antagonismus (Maus [4]; 1 mg/kg i.p.) [%] | Dauer der Unbeweglichkeit (Maus [4]; 1 mg/kg i.p.) [Sekunden] | % Antagonismus (Maus [4]; 2 mg/kg i.p.) [%] | Dauer der Unbeweglichkeit (Maus [4]; 2 mg/kg i.p.) | % Antagonismus (Maus [4]; 4 mg/kg i.p.) [%] | Dauer der Unbeweglichkeit (Maus [4]; 4 mg/kg i.p.) | % Antagonismus (Maus [4]; 16 mg/kg i.p.) [%] | Dauer der Unbeweglichkeit (Maus [4]; 16 mg/kg i.p.) | minimal effective dose (Apomorphin 16 mg/kg; [8]) [mg/kg] | minimal effective dose [2, 9] [mg/kg] | % Antagonismus (Maus [5]; 16 mg/kg i.p.) [%] | Dauer der Unbeweglichkeit (Maus [5]; 16 mg/kg i.p.) | Motilität (Motoraktivität) | minimal effective dose (Motoraktivität) [mg/kg] | minimal effective dose (Toxizität des Yohimbins) [mg/kg] | Pfotenlecken (Maus [6]; [11]) | Sprünge (Maus [6]; [11]) [Sekunden] | % Antagonismus (Maus [5]; 8 mg/kg i.p.) [%] | other results |
| --- | --- | --- | --- | --- | --- | --- | --- | --- | --- | --- | --- | --- | --- | --- | --- | --- | --- | --- | --- | --- | --- |
| Clc1ccc([C@@H]2CCNC[C@H]2c2ccccc2)cc1Cl [15 (HCl-Salz)] | – | – | – | – | – | – | – | – | – | – | – | – | – | – | – | – | – | – | – | – | minimal effective dose (Apomorphin 16 mg/kg; Mus musculus, read-out: Erste wirksame Dosis Apomorphin 16 mg/kg, mouse, i.p., only or lowest value of the cell): 1 mg/kg; minimal effective dose ([1]; Mus musculus): 0.25 mg/kg; minimal effective dose ([2]; Mus musculus, read-out: Erste wirksame Dosis Reserpin, mouse, i.p., only or lowest value of the cell): 1 mg/kg; Aktimetrie (Motoraktivität; mouse, direction of change of motor activity): ↗; Erste wirksame Dosis Yohimbin (Toxizität des Yohimbins; mouse, i.p., only or lowest value of the cell): 1 mg/kg |
| CN(C)CCCN1c2ccccc2CCc2ccccc21 [IMIPRAMIN] | 8 | 1 to 4 | 31 | 70 ± 17 | 42 | 59 ± 8 p < 0,01 Sekunden | 48 | 53 ± 11 p < 0,01 Sekunden | 73 | 28 ± 7 p < 0,001 Sekunden | 4 | 2 | 37 | 112 ± 23 p < 0,05 Sekunden | ↘ | 128 | 16 | – | – | – | % Antagonismus (Maus [4]; 8 mg/kg i.p.): 58%; Dauer der Unbeweglichkeit (Maus [4]; 8 mg/kg i.p.): 48 ± 10 p < 0,01 Sekunden |
| CN1CCN2c3ccccc3Cc3ccccc3C2C1 (stereo not drawn) [MIANSERIN, reference compound] | 64 | – | – | – | – | – | – | – | – | – | 64 | > 32 | – | – | ↘ | 32 | – | – | – | – | minimal effective dose ([1]; Tabelle Ib): 32 mg/kg |
| c1ccc([C@@H]2CCNC[C@H]2c2ccccc2)cc1 (relative stereo) [DPPT, trans-3,4-Diphenylpiperidin] | – | – | 25 | 58 ± 13 | 51 | 38 ± 7 p < 0,01 Sekunden | 79 | 16 ± 2 p < 0,001 Sekunden | 84 | 12 ± 3 p < 0,001 Sekunden | – | – | 47 | 94 ± 17 p < 0,001 Sekunden | – | – | – | 7,0 ± 0,9 Sekunden | 103 ± 10 | 28 | minimal effective dose (Maus [6]; Mus musculus, ip, 0.5 h, read-out: Effekt statistisch gesichert bei): 16 mg/kg; Pfotenlecken (Maus [6]; [10]): 10,0 ± 1,5 p < 00,1 Sekunden and 7,9 ± 0,6 p < 0,02 Sekunden; Sprünge (Maus [6]; [10]): 141 ± 12 p < 0,01 Sekunden and 125 ± 14 p < 0,01 Sekunden; schadenverhütender Effekt, Wechselwirkung mit Naloxon (Maus [6]; mouse, hot plate): unterliegt Antagonismus durch Naloxon; Pfotenlecken (Maus [6]; [12]): 8,7 ± 1,2 p < 0,02 Sekunden and 9,9 ± 2,0 Sekunden; Sprünge (Maus [6]; [12]): 154 ± 11 p < 0,001 Sekunden and 135 ± 14 p < 0,05 Sekunden; Pfotenlecken (Maus [6]; [13]): 13,0 ± 1,7 p < 0,01 Sekunden; Sprünge (Maus [6]; [13]): 193 ± 17 p < 0,001 Sekunden; minimal effective dose (Maus [4]; Mus musculus, read-out: bedeutsame Verkürzung der Dauer der Unbeweglichkeit, Dosis): ≥ 2 mg/kg; minimal effective dose at 16 mg/kg (Maus [5]; ip, Porsolt test, effect stronger at 16 mg/kg, read-out: bedeutsame Abnahme in der Dauer der Unbeweglichkeit, Dosis): ≥ 8 mg/kg; Dauer der Unbeweglichkeit (Maus [5]; 8 mg/kg i.p.): 141 ± 16 p < 0,02 Sekunden; minimal effective dose (L-5-Hydroxytryptophan; ip, read-out: Zunahme der durch L-5 HTP induzierten ruckartigen Kopfbewegungen, Effekt gesichert bei): 8 mg/kg; Tremor (L-5-Hydroxytryptophan; [14]): 1,3 ± 0,4; ruckartige Kopfbewegungen (L-5-Hydroxytryptophan; [14]): 4,7 ± 0,6 p < 0,01; Tremor (L-5-Hydroxytryptophan; L-5 HTP potentiation): verstärkt; stimulierender Effekt an der Maus (Motoraktivität; mouse, 16 mg/kg): keinen stimulierenden Effekt |
| CNCCCN1c2ccccc2CCc2ccccc21 [DESIPRAMIN, reference compound] | > 16 | 1 to 4 | – | – | – | – | – | – | – | – | 2 | 0.25 | – | – | ↘ | 4 | 0.5 | 8,2 ± 0,5 p < 0,001 Sekunden | 85 ± 7 | 48 | Dauer der Unbeweglichkeit (Maus [5]; 8 mg/kg i.p.): 105 ± 16 p < 0,001 Sekunden; Tremor (L-5-Hydroxytryptophan; [15]): 0,5 ± 0,2; ruckartige Kopfbewegungen (L-5-Hydroxytryptophan; [15]): 3,8 ± 0,4 p < 0,01 |
